The results in this text go back to US20230183753A1, “Methods of in Vitro Cell Delivery” (Intellia Therapeutics, Inc., priority 2020, published 2023).

Common to all, as to format: cell-based, human
The test system of data set [1] is B2M, TRAC, TRBC, CIITA. Nature of the data set: NGS percent editing after LNP delivery of BC22n or Cas9 with single or four guides, Example 16.B.6. The settings on record: 4 guides delivered by LNP. The procedure:
(§1) LNPs were formulated generally as in Example 1 with a single RNA species cargo. […] Seventy-two hours post activation, T cells were washed and suspended in OpTmizer media with cytokines without human serum. […] A control group including unedited T cells (no LNP) was also included. At 16 hours post-delivery, a subset of cells was used to measure cell viability and another subset of cells was processed for imaging of γH2AX foci. The remaining T cells continued to expand in culture. Media was changed 5 days and 8 days after activation and on the eleventh day post activation, cells were harvested for analysis by NGS, flow cytometry and UnIT. NGS was performed as in Example 1.
(§2) On day 8 post-editing, T cells were phenotyped by flow cytometry to determine B2M, CD3 and HLA II− DR, DP, DQ protein expression. Briefly, T cells were incubated in a cocktail of antibodies targeting B2M-APC/Fire™ 750 (BioLegend® Cat. No. 316314), CD3-BV605 (BioLegend® Cat. No. […]) and HLA II− DR, DP, DQ-PE (BioLegend® Cat. No. 361716). Cells were subsequently washed, processed on a Cytoflex flow cytometer (Beckman Coulter) and analyzed using the FlowJo software package. T cells were gated based on size, shape, viability, and MHC II expression. […]

Data set [2] has as its system B2M, TRAC, TRBC1/2, CIITA. The experiment in a line: NGS editing profile of T cells with BC22n or Cas9 mRNA, single or four guides, LNP titration, Example 16A.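 Note: activated T cells exposed to LNPs 72 h after activation, kept at 37 °C, harvested on day 10 post activation, editing measured by NGS.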 Particulars: four guides simultaneously, with trans UGI.
Experimental: Cells were expanded in T cell basal media for 72 hours prior to LNP transfection.
LNPs were mixed to fixed total mRNA weight ratios of 6:3:2 for editor mRNA, guide RNA, and UGI mRNA respectively as described in Table 12. […] LNP mixtures were incubated for 5 minutes at 37° C. in T cell basal media substituting 6% cynomolgus monkey serum (Bioreclamation IVT, Cat. CYN220760) for fetal bovine serum.
T cells were incubated at 37° C. with 5% CO2 for the duration of the experiment.
In total, T cells were exposed to 6 different LNPs simultaneously (editor mRNA, UGI mRNA, 4 guides).
Data set [3] relates to B2M, CD3, HLA II-DR, DP, DQ. Nature of the data set: Flow cytometry of surface proteins (B2M, CD3, HLA II-DR, DP, DQ) after LNP delivery, Example 16.B.6. The settings on record: LNP treatment. The method, then: as §1, §2
(In general: A flow cytometer gives signals particle by particle.)

Data set [4] has as its system B2M, CD3, MHC II. The experiment in a line: Flow cytometry of antigen negative T cells (B2M, CD3, MHC II) after BC22n or Cas9 editing, Example 16A.
Text: Cells were subsequently washed, processed on a Cytoflex instrument (Beckman Coulter) and analyzed using the FlowJo software package. T cells were gated based on size, shape, viability, and antigen expression.
Data set [5] relates to interchromosomal translocations. Nature of the data set: UnIT structural variant assay (interchromosomal translocations), Example 16.B.7. The settings on record: multiplex editing with 4 guides by LNP. The method, then:
On day 8 post-editing a subset of T cells from the untreated, LNP-Cas9-4 guides and LNP-BC22n-4 guides samples were collected, spun down and resuspended in 100 μL of PBS. gDNA was isolated from the cells using DNeasy Blood & Tissue Kit (Qiagen Cat. 69504). The UnIT structural variant characterization assay was applied to these gDNA samples. High molecular weight genomic DNA is simultaneously fragmented and sequence-tagged (‘tagmented’) with the Tn5 transposase and an adapter with a partial Illumina P5 sequence and a 12 bp unique molecular identifier (UMI). Two sequential PCRs using a primer to P5 and hemi-nested gene specific primers (GSP) imparting the Illumina the P7 sequence to create two Illumina compatible NGS libraries per sample. Sequencing across both directions of the CRISPR/Cas9 targeted cut site with the two libraries allows the inference and quantification of structural variants in DNA repair outcomes after genome editing.

Consider “BC22n: mRNA encoding editor: H. sapiens APOBEC3A fused to S. pyogenes-D10A Cas9 nickase by an XTEN linker, without UGI”, for which the “percent editing at each locus compared with Cas9, in words” value in data set [1] is given as “percent editing is higher at each locus”. The “maximum total editing for each locus compared with Cas9, in words” value in data set [2] is given as “higher percentages of maximum total editing for each locus”. The “triple knockout cells compared with Cas9, in words” value in data set [3] was “greater percentage of triple knockout cells”. Also, the “% of cells lacking all three antigens (triple knockout: B2M, CD3, MHC II)” value in data set [4] (four guides, with trans UGI, highest total RNA dose of 550 ng) was 84.2%. Moreover, the “R square, C to T conversions compared to antigen knockout” value in data set [4] (samples treated with one guide only) is on record as 0.93. The “interchromosomal translocations / structural variation (UnIT), in words” value in data set [5] was “reduced to background levels”.
